System: SHR
Assay: Effect by oral administration on SHR, tail cuff method (Experiment C-6)
Format: in vivo, Spontaneously hypertensive male rats
Experimental: By using Spontaneously hypertensive male rats (aged 16 to 17 weeks), the compound of Example C-8 and a comparative compound [S-(R*,R*)]-2,3,4,5-tetrahydro-3-[(2-mercapto-1-oxohexyl)amino]-2-oxo-1H-benzazepine-1-acetic acid having the following structure each dissolved in 0.5% methylcellulose were orally administered thereto. Hypotensive effects were measured by the tail cuff method and data obtained before the oral administration and 2, 4 and 8 hours after the administration were compared. […] Accordingly, the compound of Example C-8 has an activity about 10 times as high as that of the comparative compound. [drawing 35]

Q: CC[C@H](C)[C@H](S)C(=O)N[C@H]1CCC[C@H]2SC[C@@H](C(=O)O)N2C1=O [Example C-8, [3R-[3α,6α,(S*),9aβ]]-6-[[(2S,3S)-3-methyl-1-oxo-2-thiopentyl]amino]-octahydro-5-oxothiazol[3,2-a]-azepine-3-carboxylic acid] was tested. Which “hypotensive effect (tail cuff method)” value (1.0 mg/kg oral, before and 2, 4 and 8 hours after) did it give?
A: comparable to the one achieved by 10 mg/kg of the above comparative compound

Q: What about the “activity relative to the comparative compound” value (oral, SHR) of the same compound?
A: about 10 times
